Source: patent publication US11389483B2, “Methods for treating pain” (Duke University, priority 2015, dated 2022)

Columns and labels:
BMSCs = assay: Transwell migration (chemotaxis) assay; format: cell-based, mice
Experimental: The migratory ability of BMSCs was determined using Transwell plates (Corning Costar, 6.5 mm in diameter with 8 μm pore filters). In brief, 5×10^4 cells in 100 μL, serum-free medium were added into the upper well, and 600 μL, of CXCL12-containing medium was placed in the lower well of a Transwell plate. Following incubation for 5 h (37° C., 100% humidity, 5% CO2 in air), the number of cells that had migrated to the lower side of the filter was counted under a light microscope at ×200 magnification, and the data were presented as the average number of migratory in five randomly-selected fields. Each experiment was performed in triplicate, and the data were averaged for statistical analysis.

CCI mice [1] = assay: Two-chamber conditioned place preference test for ongoing pain after CCI; format: in vivo; conditions: clonidine 10 μg i.t.
Text: To test spontaneous/ongoing pain measurement, a single trial conditioning protocol for conditioned place preference (CPP) was used as described in King et al. (Nat. Neurosci. 2009, 12, 1364-1366) and Xu et al. (Ann. Neurol. 2013, 74, 490-495). All mice underwent a 3-day pre-conditioning habituation and animal behavior was video-recorded. […] On the conditioning day, mice received the vehicle (saline) control paired with a randomly chosen chamber in the morning, and then the appropriate treatment (clonidine, 10 μg, i.t.) paired with the other chamber 4 h later. Chamber pairings were counterbalanced. On the test day, 20 h following the afternoon pairing, mice were placed in the CPP box with access to both chambers and the behavior was recorded for 15 min and analyzed by ANY-maze software for chamber preference.

TGF-β1 = assay: ELISA of TGF-β1 release and expression in BMSCs cultures; format: cell-based, mice; conditions: TNF 10 ng/mL, 60 min, LPS 100 ng/mL
Experimental: Tgfβ1 siRNA (Catalog: J-040652-06), Cxcr4 siRNA (Catalog: J-060184-06) and Non-targeting siRNA (Catalog: D-0018100-01-20) were purchased from Thermo Scientific Dharmacon. SiRNA was dissolved in RNase-free water at 1 μg/μL as stock solution and mixed with transfection reagent polyethyleneimine (PEI, Fermentas) and normal saline before use. Specifically, 1 μg siRNA was dissolved in 3.3 μL of PEI and 66 μL of normal saline (Kawasaki, et al. Nat. Med. 2008, 14, 331-336).
Primary cultures of BMSCs were obtained from CD-1 donor mice under aseptic conditions. The mice were sacrificed with isoflurane and the both ends of the tibiae and femurs were cut off by scissors. A syringe fitted with 20-gauge needle was inserted into the shaft of the bone, and bone marrow was flushed out with culture medium (modified Eagle's medium containing 10% fetal bovine serum, 2 mM L-glutamine, 100 U/mL penicillin and 100 μg/mL streptomycin, 250 μg/mL Fungizone, all obtained from Gibco). After the centrifuge at 1000 g for 5 min at room temperature, the pellet was resuspended in 2 mL fresh warm culture medium and mechanically dissociated, and the suspension was passed through a 40-μm cell strainer to remove debris. After the centrifuge the cells were resuspended at a concentration of 1×10^6 cells/mL. The cells were then incubated at 37° C. in 5% CO2 in 75 cm2 cell culture flasks or 6-well culture plates. […]

IL-10 = assay: ELISA of IL-10 release in BMSCs culture medium; format: cell-based, mice; conditions: TNF 10 ng/mL, 60 min, LPS 100 ng/mL
Experimental: Primary cultures of BMSCs were obtained from CD-1 donor mice under aseptic conditions. The mice were sacrificed with isoflurane and the both ends of the tibiae and femurs were cut off by scissors. A syringe fitted with 20-gauge needle was inserted into the shaft of the bone, and bone marrow was flushed out with culture medium (modified Eagle's medium containing 10% fetal bovine serum, 2 mM L-glutamine, 100 U/mL penicillin and 100 μg/mL streptomycin, 250 μg/mL Fungizone, all obtained from Gibco). After the centrifuge at 1000 g for 5 min at room temperature, the pellet was resuspended in 2 mL fresh warm culture medium and mechanically dissociated, and the suspension was passed through a 40-μm cell strainer to remove debris. After the centrifuge the cells were resuspended at a concentration of 1×10^6 cells/mL. The cells were then incubated at 37° C. in 5% CO2 in 75 cm2 cell culture flasks or 6-well culture plates. After 24 hours, cells were washed gently with PBS and replaced with fresh culture media. Adherent cells were further cultured with a medium change every 2-3 days until confluence was reached (also see FIG. 11).
Mouse TGF-β1, IL-10, and CXCL12/SDF-1α ELISA kits were purchased from R&D Systems. ELISA was performed using BMSCs culture medium or cell lysate, CSF, and DRG tissue. Cultured cells and DRGs were homogenized in a lysis buffer containing protease and phosphatase inhibitors. […]

CCI mice [2] = assay: CCI neuropathic pain model: mechanical allodynia (von Frey) and thermal hyperalgesia (Hargreaves); format: in vivo
Text: Adult CD1 mice (male, 25-32 g) were purchased from Charles River Laboratories and used for behavioral studies and primary cultures of BMSCs. Neuropathic pain was produced by chronic constriction injury of the sciatic nerve (CCI) (Bennett, et al. J. Neurosci. 1998, 18, 3059-3072) and spared nerve injury (SNI) (Decosterd, et al. Pain 2000, 87, 149-158). For producing the CCI model animals were anesthetized with isoflurane, the left sciatic nerve was exposed, and three ligatures (7-0 prolene) were placed around the nerve proximal to the trifurcation with one millimeter between each ligature. The ligatures were loosely tied until a short flick of the ipsilateral hind limb was observed. Animals in the sham group received surgery identical to those described but without nerve ligation. Under isoflurane anesthesia, the SNI surgery was also performed with a 5.0 silk tight ligation of the tibial and common peroneal nerves followed by transection and removal of a 3-5 mm nerve portion. However, the third peripheral branch of the sciatic nerve, the sural nerve, remained intact, and any contact or stretch to this nerve was carefully avoided. All the animal procedures performed in this study were approved by the Animal Care Committee of Duke University Medical Center. TGF-β1, […] neutralizing antibody, TNF and CXCL12/SDF-1α were purchased from R&D, LPS from Sigma. AMD3100 (CXCR4 antagonist) and SB431542 (TGF-β1R inhibitor) were purchased from Selleckchem. IL-10 neutralizing antibody was purchased from Biolegend, and normal Rabbit IgG were purchased from Santa Cruz. For intrathecal injection, spinal cord puncture was made with a 30-G needle between the L5 and L6 level to deliver reagents (10 μL) or cells (1 or 2.5×10^5 cells in 10 μL PBS) to the cerebral spinal fluid (Hylden, et al. Eur. J. Pharmacol. 1980, 67, 313-316). […] Cells were then washed three times with PBS and resuspended. Animals were habituated to the testing environment daily for at least 2 days before baseline testing. The room temperature and humidity remained stable for all experiments. All the behaviors were tested blindly. For testing mechanical sensitivity, mice were confined in boxes placed on an elevated metal mesh floor and their hindpaws were stimulated with a series of von Frey hairs with logarithmically increasing stiffness (0.02-2.56 g, Stoelting), presented perpendicularly to the central plantar surface. The 50% paw withdrawal threshold was determined by Dixon's up-down method. Mechanical allodynia after SNI was also assessed by frequency response (expressed as percentage response) to a low-threshold von Frey hair (0.16 g, 10 times). […] The falling latency was recorded and averaged.

[3] = tested on: lamina IIo neurons of spinal cord slices; assay: Patch-clamp recordings of sEPSCs in spinal cord slices; format: cell-based, mice
Experimental: A portion of the lumbar spinal cord (L4-L5) was removed from mice (4-7 weeks old) under urethane anesthesia (1.5-2.0 g/kg, i.p.) and kept in pre-oxygenated ice-cold Krebs solution (Xu, et al. Ann. Neurol. 2013, 74, 490-495). Transverse slices (400-600 μm) were cut on a vibrating microslicer. The slices were perfused with Kreb's solution (8-10 mL/min) that was saturated with 95% O2 and 5% CO2 at 36° C. for at least 1-3 h prior to experiment. The Kreb's solution contained (in mM): NaCl 117, KCl 3.6, CaCl2 2.5, MgCl2 1.2, NaH2PO4 1.2, NaHCO3 25, and […]. The whole-cell patch-clamp recordings were made from lamina IIo neurons in voltage-clamp mode. Patch pipettes were fabricated from thin-walled, borosilicate, glass-capillary tubing (1.5 mm outer diameter; World Precision Instruments). After establishing the whole-cell configuration, neurons were held their holding potentials at −70 mV for recording sEPSCs. The resistance of a typical patch pipette is 5-10 M. The internal solution contained the following (in mM): 135 potassium gluconate, 5 KCl, 0.5 CaCl2, 2 MgCl2, 5 EGTA, 5 HEPES, and 5 ATP-Mg. Membrane currents were amplified with an Axopatch 200 A amplifier (Molecular Devices) in voltage-clamp mode. Signals were filtered at 2 kHz and digitized at 5 kHz. Data were stored with a personal computer using pClamp 6 software and analyzed with Mini Analysis (Synaptosoft).

small-sized DRG neurons = assay: Whole-cell patch clamp recordings of action potentials in whole mount DRG; format: cell-based, mice
Experimental: The L4-L5 whole mount DRGs were carefully removed from the vertebral column and placed in cold oxygenated ACSF as detailed in Lee et al. (Cell 2014, 157, 1393-1404). The connective tissue was gently removed under a microscope and the ganglia were digested with a mixture of 1.0 mg/mL protease and 1.6 mg/mL collagenase (Sigma) for 30 min at 37° C. The ganglion was transferred into a holding chamber containing normal Mg2+-free ACSF with CNQX (2 μM) bubbled with 95% O2 and 5% CO2 at room temperature. Whole-cell current clamp recordings were performed at room temperature (28° C.) to measure action potentials with Axopatch-200B amplifier (Axon Instruments). The patch pipettes were pulled from borosilicate capillaries (Chase Scientific Glass Inc.). When filled with the pipette solution, the resistance of the pipettes was 4-5 MΩ. The recording chamber (300 μL) was continuously superfused (3-4 mL/min). Series resistance was compensated for (>80%), and leak subtraction was performed. Data were low-pass-filtered at 2 KHz, sampled at 10 KHz. The pClamp10 (Axon Instruments) software was used during experiments and analysis.

[4] = tested on: PAX-induced mechanical allodynia in mice; assay: Paclitaxel (PAX)-induced neuropathic pain model: paw withdrawal frequency to von Frey hair (0.4 g); format: in vivo; conditions: i.t. TGF-β1 100 ng, 7 weeks after first paclitaxel injection
Experimental: PAX-induced neuropathic pain (mechanical allodynia) was evaluated by paw withdrawal frequency to von Frey hair (0.4 g) stimuli (10×). Intrathecal BMSCs (2.5×10^5) produced a rapid (1 week) and long lasting (7 weeks) reduction in PAX-induced mechanical allodynia (FIG. 19B).
The analgesic efficacy of TGF-β1 was also tested in a PAX-induced neuropathic pain model. […] PAX-induced neuropathic pain was evaluated by paw withdrawal frequency to von Frey hair (0.4 g) stimuli (10×). Intrathecal TGF-β1 transiently reversed PAX-induced mechanical allodynia for 3 hours following injection (FIG. 20).

Compound: c1cc(CN2CCCNCCNCCCNCC2)ccc1CN1CCCNCCNCCCNCC1 [AMD3100]
- CXCL12-induced migration of BMSCs (BMSCs; AMD3100 5 mg/L 30 min): blocked

Compound: Clc1cccc(Cl)c1N=C1NCCN1 [clonidine]
- time in chamber paired with drug versus chamber paired with vehicle (CPP) (CCI mice [1]): spent more time

Compound: TNF-α
- TGF-β1 release of BMSCs on exposure (TGF-β1): significantly increased
- IL-10 release of BMSCs on exposure (increase) (IL-10): not

Compound: CXCL12: chemokine, ligand of CXCR4, purchased from R&D
- migration of BMSCs in vitro (BMSCs; CXCL12 0-100 ng/ml): induced migration

Compound: NC(=O)c1ccc(-c2nc(-c3ccc4c(c3)OCO4)c(-c3ccccn3)[nH]2)cc1 [SB431542, reference compound]
- effect on the anti-allodynic and anti-hyperalgesic effects of TGF-β1 (10 ng) (CCI mice [2]; SB431542 100 pmol i.t., CCI mice): eliminated
- effect on the TGF-β1 (10 ng/mL) blockade of sEPSC increases ([3]; SB431542 10 μM): abrogated
- effect on the TGF-β1 suppression of spike frequency (small-sized DRG neurons; SB431542 10 μM): reversed

Compound: TGF-β1: exogenous recombinant TGF-β1 purchased from R&D, given intrathecally or superfused
- late-phase neuropathic pain on post-CCI day 21 (CCI mice [2]; i.t. TGF-β1): effectively inhibited
- mechanical allodynia and thermal hyperalgesia at 5 days after CCI (CCI mice [2]; i.t. TGF-β1 2 ng and 10 ng): dose-dependently inhibited
- time after which the reversal of allodynia/hyperalgesia recovered (CCI mice [2]; i.t. TGF-β1 2 and 10 ng, 5 days after CCI): 24 h
- sEPSC frequency and amplitude in sham mice ([3]; superfusion 10 ng/mL): no effects
- time to blockade of CCI-induced sEPSC increases ([3]; superfusion 2 or 10 ng/mL): 2 min
- CCI-induced increases in sEPSC frequency and amplitude ([3]; superfusion 2 or 10 ng/mL, slices from CCI mice (4 d)): blocked
- CCI-induced increase in spike frequency in small-sized DRG neurons (small-sized DRG neurons; TGF-β1 2 or 10 ng/mL): dose-dependently suppressed
- time to suppression of the spike frequency increase (small-sized DRG neurons; TGF-β1 2 or 10 ng/mL): 2 to 5 min
- duration of reversal of PAX-induced mechanical allodynia following injection [4]: 3 h
